Experimental data from paper PMC3223389 (Frontiers in Pharmacology, 2011).

Target: T1, P2X2/3 receptors (Homo sapiens, UniProt P56373+Q9UBL9)
T1 sequence (Q9UBL9 1-471): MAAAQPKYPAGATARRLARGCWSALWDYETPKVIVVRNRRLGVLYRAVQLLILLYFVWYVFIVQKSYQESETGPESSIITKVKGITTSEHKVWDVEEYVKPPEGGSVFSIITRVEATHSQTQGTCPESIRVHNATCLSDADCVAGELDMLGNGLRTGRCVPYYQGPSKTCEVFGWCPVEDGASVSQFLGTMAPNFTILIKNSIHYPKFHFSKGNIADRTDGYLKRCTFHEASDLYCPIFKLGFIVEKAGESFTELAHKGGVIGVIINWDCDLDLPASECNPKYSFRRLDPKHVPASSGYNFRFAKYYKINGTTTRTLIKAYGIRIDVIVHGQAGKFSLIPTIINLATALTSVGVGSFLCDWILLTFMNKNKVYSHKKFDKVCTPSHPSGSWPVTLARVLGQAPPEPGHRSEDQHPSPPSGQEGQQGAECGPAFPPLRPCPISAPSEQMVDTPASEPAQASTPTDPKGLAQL
T1 sequence (P56373 1-397): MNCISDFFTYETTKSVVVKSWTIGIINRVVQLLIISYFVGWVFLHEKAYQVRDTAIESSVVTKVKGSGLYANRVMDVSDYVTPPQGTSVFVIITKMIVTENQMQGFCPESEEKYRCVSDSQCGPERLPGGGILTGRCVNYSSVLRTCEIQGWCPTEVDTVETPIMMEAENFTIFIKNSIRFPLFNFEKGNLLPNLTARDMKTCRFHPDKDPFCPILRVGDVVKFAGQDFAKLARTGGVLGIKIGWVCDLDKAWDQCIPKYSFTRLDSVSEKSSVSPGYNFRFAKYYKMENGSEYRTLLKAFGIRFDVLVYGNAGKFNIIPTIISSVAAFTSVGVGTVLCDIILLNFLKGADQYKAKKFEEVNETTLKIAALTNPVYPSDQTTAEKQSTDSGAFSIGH
Experiment: SyncroPatch 96 recording of P2X2/3 receptors in 1321N1 cells
Type: cell-based
Conditions: 10 μM, 1321N1 cell, three applications with intermittent wash steps

activation of P2X2/3 receptors: repeatedly activated
SMILES: Nc1ncnc2c1ncn2[C@@H]1O[C@H](COP(=O)(O)OP(=O)(O)OP(=O)(O)O)[C@@H](O)[C@H]1O [ATP]
